Data on four compounds can be found in patent EP0485219B1, “Medicaments for preventing and treating circulatory organ diseases containing spiro-3-heteroazolidine compounds” (SANWA KAGAKU KENKYUSHO CO., LTD., priority 1990, dated 1992).

Structures are written as SMILES.

Test [1] concerns left atrium. The test can be described thus: Action on extracted guinea pigs' hearts: left atrium sample (systole force). Also on record: species or system Hartley guinea pigs. Conditions: electrically stimulated; for Systole Forces 10^-4(M): suppression at 10^-4 M; for Systole Forces 10^-5(M): suppression at 10^-5 M. The source says: (§1) Stunned by receiving a blow on the heads, Hartley guinea pigs (weighing 300-400 g) were fixed on the back regions to extract their hearts. Each of the extracted hearts was placed in a beaker containing the same Krebs-Henseleit solution as used in Test Example 4 and supplied with 95% O₂-5% CO₂ gases, thereby stripping it of blood deposits, and was then passed into a sample forming glass vessel. This vessel was previously filled with a Krebs-Henseleit solution and the above gaseous mixture continued to be supplied thereto during preparing the sample.
(§2) In order to prepare the sample, the right and left atria were cut out of the ventricular muscle along the atriventricular sulcus from the center of both the right and left auricles.
The extracted left atrium was fixed with a micro wire clamp through both the auricles in a Magnus tube supplied with 95% O₂ - 5% CO₂ gases, containing 30 ml of a Krebs-Henseleit solution and maintained at a solution temperature of 32±1°C, and then suspended therein under a checking tension of ca. 0.25 g. While a platinum bipolar electrode attached to the above-mentioned micro wire clamp was in contact with the atrium, stimuli were given to it by 1-Hz, 2-msec. and 10-V rectangular waves derived through an electrical stimulator and an isolator to record the movement of said atrium with an FD pickup connected with it through silk thread.
(§3) The actions of the present and control compounds on the right (counting the heart rate) and left (measuring the systole force) atria are reported below.

Test [2] relates to right atrium. The test can be described thus: Action on extracted guinea pigs' hearts: right atrium sample (heart rate). Also on record: species or system Hartley guinea pigs. Conditions: for Heart Rates 10^-4(M): suppression at 10^-4 M; for Heart Rates 10^-5(M): suppression at 10^-5 M.
From the text: as §1, §2
The thus extracted right atrium was suspended in a Magnus tube with a tension of 0.2 to 0.3 g, said tube supplied with 95% O₂ - 5% CO₂ gases, containing 10 ml of a Krebs-Henseleit solution and maintained at 32±1°C. The contraction of the sample was recorded on a recorder through an FD pickup simultaneously with counting and recording the beat with an instantaneous cardiograph unit.
as §3

Test [3] concerns platelet aggregation. The test can be described thus: Ex vivo action on inhibiting platelet aggregation after intravenous administration. The format is in vivo, rat. Conditions: inhibition of platelet aggregation relative to control; 30.0 mg/kg intravenously, blood gathered five minutes after; inducer collagen. The procedure: Five minutes after the test compound had been intravenously administered to the tail of a rat, blood was gathered from the descending aorta of the rat which was lightly etherized. Added to this blood was citric acid (3.8% sodium citrate) in a volume ratio of 1/10.
The thus treated blood was centrifuged at 1500 rpm for 5 minutes to obtain a supernatant fluid in the form of PRP. The residues were then again centrifuged at 4°C and 3000 rpm for 10 minutes to obtain a supernatant fluid in the form of PPP. For the platelet aggregation test, NAB HEMA TRACER 601 (Model PAT-60 made by Niko Bioscience Co., Ltd.) was used. […] of PRP were put in a PRP cuvette having a stirrer bar with the transmittance set at 0%, while 300 µl of PPP were put in a PPP cuvette with the transmittance set at 100%. After 1-minute preincubation, 20 µl of an aggregation inducer (collagen or ADP) were introduced.
A control group, to which dimethylacetamide and tartaric acid in a ratio of 2/3 were given in a quantity of 1 ml/kg, was treated similarly to the test group. Upon the addition of the aggregation inducer, a maximum transmittance change was read to find a platelet aggregation change in %. […] Table 3 sets out the results, from it is noted that the present compounds have a significant action on inhibiting platelet aggregation.

For the compound `CC(C)NCC(O)COc1cccc2ccccc12` (stereo not shown) [A, propranolol], in test [1], the “Systole Forces 10^-4(M)” value was “++ (++ indicates 20% or more suppression)” and the “Systole Forces 10^-5(M)” value is given as “++ (++ indicates 20% or more suppression)”. Moreover, in test [2], the “Heart Rates 10^-4(M)” value is “++ (++ indicates 20% or more suppression)” and the “Heart Rates 10^-5(M)” value was “++ (++ indicates 20% or more suppression)”.

As for `CC(=O)Oc1ccccc1C(=O)O` [Aspirin], the “inhibition of collagen-induced platelet aggregation” value in test [3] is 77%.

Regarding `CC(C(O)c1ccc(O)cc1)N1CCC(Cc2ccccc2)CC1` (stereo not shown) [B, ifenprodil], in test [1], the “Systole Forces 10^-4(M)” value is “+ (+ 10-20% suppression)” and the “Systole Forces 10^-5(M)” value is on record as “- (- 0% suppression)”. Besides, in test [2], the “Heart Rates 10^-4(M)” value is listed as “++ (++ indicates 20% or more suppression)” and the “Heart Rates 10^-5(M)” value is “++ (++ indicates 20% or more suppression)”.

On to `COc1ccc2c(c1)c(CC(=O)O)c(C)n2C(=O)c1ccc(Cl)cc1` [Indomethacin], for which, in test [3], the “inhibition of collagen-induced platelet aggregation” value worked out at 49%.
